Data as given in US6706663B2, “Herbicidal 3-heterocyclic substituted benzisothiazole and benzisoxazole compounds” (Wyeth, priority 2000, dated 2004).

Key:
SETVI (Setaria viridis) = test: Preemergence herbicidal evaluation; format: in vivo, (L.) Beau; conditions: preemergence, rated 4-5 weeks after treatment
Procedure, shortened: (§1)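 Visual 0-9 rating versus untreated control, taken four to five weeks post-treatment, scoring stand, vigor, malformation, size, chlorosis and overall appearance. Compound applied as aqueous acetone spray to freshly seeded soil cups, then kept under standard greenhouse care.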

[1] = system: ECHCG (Echinochloa crus-galli); test: Preemergence herbicidal evaluation; format: in vivo, (L.) Beau; conditions: preemergence, rated 4-5 weeks after treatment
Procedure, shortened: as §1

GALAP (Galium aparine) [2] = test: Postemergence herbicidal evaluation; format: in vivo
Procedure, shortened: (§2)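 Visual 0–9 injury scores versus control plants, covering stand, vigour, malformation, size, chlorosis and general appearance, taken four to five weeks post-spray and averaged over replicate tests. Plants were sprayed at roughly two weeks old and held on greenhouse benches.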

ORYSAT (Rice, Tebonnet) [3] = test: Postemergence herbicidal evaluation; format: in vivo, Oryza sativa, (L.) Tebonnet
Procedure, shortened: as §2

ZEAMX (Corn, Field) = test: Postemergence herbicidal evaluation; format: in vivo, Zea mays, L.
Procedure, shortened: as §2

ORYSAT (Rice, Tebonnet) [4] = test: Preemergence herbicidal evaluation; format: in vivo, Oryza sativa, (L.) Tebonnet; conditions: preemergence, rated 4-5 weeks after treatment
GALAP (Galium aparine) [5] = test: Preemergence herbicidal evaluation; format: in vivo; conditions: preemergence, rated 4-5 weeks after treatment
Procedure, shortened: as §1

[6] = system: IPOHE (Ipomoea hederacea); test: Postemergence herbicidal evaluation; format: in vivo, (L.) Jacq.
Procedure, shortened: as §2

[7] = system: GLXMAW (Soybean, Williams); test: Postemergence herbicidal evaluation; format: in vivo, Glycine max, (L.) Merr. cv Williams
Procedure, shortened: as §2

[8] = system: ABUTH (Abutilon theophrasti); test: Postemergence herbicidal evaluation; format: in vivo, Medic.
Procedure, shortened: as §2

[9] = system: CHEAL (Chenopodium album); test: Postemergence herbicidal evaluation; format: in vivo, L.
Procedure, shortened: as §2

[10] = system: AMBEL (Ambrosia artemisifolia); test: Postemergence herbicidal evaluation; format: in vivo, L.
Procedure, shortened: as §2

[11] = system: CASOB (Cassia obtusifolia); test: Postemergence herbicidal evaluation; format: in vivo, L.
Procedure, shortened: as §2

[12] = system: TRZAWR (Wheat, Winter, cv Riband); test: Preemergence herbicidal evaluation; format: in vivo, Triticum aestivum; conditions: preemergence, rated 4-5 weeks after treatment
Procedure, shortened: as §1

Row | SMILES | SETVI preemergence herbicidal rating (SETVI (Setaria viridis); Rate 0.0620 kg/ha) | SETVI preemergence herbicidal rating (SETVI (Setaria viridis); Rate 0.1250 kg/ha) | SETVI preemergence herbicidal rating (SETVI (Setaria viridis); Rate 0.2500 kg/ha) | ECHCG preemergence herbicidal rating ([1]; Rate 0.0620 kg/ha) | ECHCG preemergence herbicidal rating ([1]; Rate 0.1250 kg/ha) | ECHCG preemergence herbicidal rating ([1]; Rate 0.2500 kg/ha) | Postemergence herbicidal rating, GALAP (GALAP (Galium aparine) [2]; rate 0.0320 kg/ha) | Postemergence herbicidal rating, GALAP (GALAP (Galium aparine) [2]; rate 0.0620 kg/ha) | Postemergence herbicidal rating, ORYSAT (ORYSAT (Rice, Tebonnet) [3]; rate 0.0320 kg/ha) | Postemergence herbicidal rating, ORYSAT (ORYSAT (Rice, Tebonnet) [3]; rate 0.0620 kg/ha) | Postemergence herbicidal rating, ZEAMX (ZEAMX (Corn, Field); rate 0.0320 kg/ha) | Postemergence herbicidal rating, ZEAMX (ZEAMX (Corn, Field); rate 0.0620 kg/ha) | ORYSAT preemergence herbicidal rating (ORYSAT (Rice, Tebonnet) [4]; Rate 0.0620 kg/ha) | ORYSAT preemergence herbicidal rating (ORYSAT (Rice, Tebonnet) [4]; Rate 0.1250 kg/ha) | ORYSAT preemergence herbicidal rating (ORYSAT (Rice, Tebonnet) [4]; Rate 0.2500 kg/ha) | GALAP preemergence herbicidal rating (GALAP (Galium aparine) [5]; Rate 0.0620 kg/ha) | GALAP preemergence herbicidal rating (GALAP (Galium aparine) [5]; Rate 0.1250 kg/ha) | GALAP preemergence herbicidal rating (GALAP (Galium aparine) [5]; Rate 0.2500 kg/ha) | Postemergence herbicidal rating, IPOHE ([6]; rate 0.0320 kg/ha) | Postemergence herbicidal rating, IPOHE ([6]; rate 0.0620 kg/ha) | other results
1 | Cn1c(C(F)(F)F)cc(=O)n(-c2ccc3snc(C4OCC(C)(C)CO4)c3c2)c1=O [Compound 36, 3-[3(5,5-dimethyl-m-dioxan-2-yl)-1,2-benzisothiazol-5-yl]-1-methyl-6-(trifluoromethyl)uracil] | 9.0 | 9.0 | 9.0 | 9.0 | 9.0 | 9.0 | 4.0 | 5.0 | 4.5 | 7.0 | 5.0 | 6.0 | 7.5 | 9.0 | 9.0 | 5.0 | 9.0 | 9.0 | 9.0 | 9.0 | Postemergence herbicidal rating, GLXMAW ([7]; rate 0.0320 kg/ha): 7.5; Postemergence herbicidal rating, GLXMAW ([7]; rate 0.0620 kg/ha): 9.0; Postemergence herbicidal rating, ABUTH ([8]; rate 0.0320 kg/ha): 9.0; Postemergence herbicidal rating, ABUTH ([8]; rate 0.0620 kg/ha): 9.0; Postemergence herbicidal rating, CHEAL ([9]; rate 0.0320 kg/ha): 7.0; Postemergence herbicidal rating, CHEAL ([9]; rate 0.0620 kg/ha): 9.0; Postemergence herbicidal rating, AMBEL ([10]; rate 0.0320 kg/ha): 9.0; Postemergence herbicidal rating, AMBEL ([10]; rate 0.0620 kg/ha): 9.0; Postemergence herbicidal rating, CASOB ([11]; rate 0.0320 kg/ha): 9.0; Postemergence herbicidal rating, CASOB ([11]; rate 0.0620 kg/ha): 9.0; TRZAWR preemergence herbicidal rating ([12]; Rate 0.0620 kg/ha): 9.0; TRZAWR preemergence herbicidal rating ([12]; Rate 0.1250 kg/ha): 9.0; TRZAWR preemergence herbicidal rating ([12]; Rate 0.2500 kg/ha): 9.0
2 | CC1CCOC(c2nsc3ccc(-n4c(=O)cc(C(F)(F)F)n(C)c4=O)cc23)O1 (stereo not drawn) [Compound 37, 1-methyl-3-[3-(4-methyl-m-dioxan-2-yl)-1,2-benzisothiazol-5-yl]-6-(trifluoromethyl)uracil] | 9.0 | 9.0 | 9.0 | 9.0 | 9.0 | 9.0 | 4.0 | 4.0 | 4.5 | 5.0 | 6.0 | 6.0 | 9.0 | 9.0 | 9.0 | 5.0 | 9.0 | 9.0 | 9.0 | 9.0 | Postemergence herbicidal rating, GLXMAW ([7]; rate 0.0320 kg/ha): 9.0; Postemergence herbicidal rating, GLXMAW ([7]; rate 0.0620 kg/ha): 9.0; Postemergence herbicidal rating, ABUTH ([8]; rate 0.0320 kg/ha): 9.0; Postemergence herbicidal rating, ABUTH ([8]; rate 0.0620 kg/ha): 9.0; Postemergence herbicidal rating, CHEAL ([9]; rate 0.0320 kg/ha): 5.0; Postemergence herbicidal rating, CHEAL ([9]; rate 0.0620 kg/ha): 9.0; Postemergence herbicidal rating, AMBEL ([10]; rate 0.0320 kg/ha): 9.0; Postemergence herbicidal rating, AMBEL ([10]; rate 0.0620 kg/ha): 9.0; Postemergence herbicidal rating, CASOB ([11]; rate 0.0320 kg/ha): 4.0; Postemergence herbicidal rating, CASOB ([11]; rate 0.0620 kg/ha): 5.0; TRZAWR preemergence herbicidal rating ([12]; Rate 0.0620 kg/ha): 9.0; TRZAWR preemergence herbicidal rating ([12]; Rate 0.1250 kg/ha): 9.0; TRZAWR preemergence herbicidal rating ([12]; Rate 0.2500 kg/ha): 9.0
